Measured values as given in BigSolDB 2.1.

OC[C@@H](O)[C@@H](O)[C@H](O)[C@@H](O)CO
solubility (mole fraction)
Settings	in THF	in acetone	in acetonitrile	in ethanol	in ethyl acetate	in methanol	in n-butanol	in n-propanol
278.15 K	0.000363	0.000225	0.000109	0.000598	0.000239	0.00205	0.000449	0.000553
283.15 K	0.000406	0.000255	0.000129	0.000753	0.000259	0.00275	0.000533	0.000677
288.15 K	0.000446	0.000287	0.000153	0.000944	0.000289	0.00351	0.000627	0.000838
293.15 K	0.000489	0.000328	0.000178	0.00117	0.000317	0.00461	0.000748	0.00102
298.15 K	0.000544	0.000382	0.000208	0.00146	0.000354	0.00585	0.000895	0.00124
303.15 K	0.000597	0.000436	0.000249	0.00181	0.000392	0.00739	0.00106	0.00152
